US20230101743A1, “SUBSTITUTED TRIAZINE COMPOUNDS AND USES THEREOF” (MUSC FOUNDATION FOR RESEARCH DEVELOPMENT, priority 2020, published 2023)

Assays:
[1] = Solubilities in water and 1 x PBS buffer (UV-vis); assay type: physicochemical; conditions: 25° C.
Experimental: The molar extinction co-efficients of exemplary cholesterol lowering compounds were measured in 1 x PBS buffer. The compounds were first dissolved in dimethyl sulfoxide. Solutions with a 0.5 mg/ml concentration were then prepared in DMSO. These solutions were diluted further with 1 x PBS by 100-fold, resulting in solutions with a 5 ug/ml concentration. The resulted diluted solutions were then measured and scanned using a UV-vis spectrophotometer for ultra-violet absorbances between 240 nm to 400 nm, using a UV 96-well microplate. The maximum UV absorbances and corresponding wavelengths were recorded (Table 1). The absorbance values were subtracted by that of a blank, 1 x PBS buffer containing […]. The volume of the solutions for UV measurements was 300 ul and the depth of the solutions was 0.7 cm. The molar extinction co-efficients were then calculated based on formula
The solubilities of the exemplary cholesterol lowering compounds were measured in water and 1 x PBS buffer. The compounds were first stirred with water and 1 x PBS buffer individually at room temperature for 1 h. The suspensions were then centrifuged for 2 min. The top clear solutions were filtered through filter paper, resulting in mother liquids, which were centrifuged again and diluted with 1 x PBS buffer for 10-fold for the solubilities in water and 100-fold the solubilities in 1 x PBS buffer. The resulted solutions were measured using a UV-vis spectrophotometer for UV absorbances with the maximum absorbances. The values were subtracted by that of a blank, 1 x PBS buffer. The corrected absorbances were then used to calculate the corresponding concentrations using the formula (1) and extinction coefficients (Table 1) shown above. The individual concentrations were then used to calculate the solubilities in 1.0 mL of water and 1 x PBS buffer.
The compounds were dissolved in DMSO to either 50 mg/ml, 10 mg/ml or 5 mg/ml solutions, which were diluted to 0.5 mg/ml with DMSO. These solutions were then diluted to 5 ug/ml with 1 x PBS buffer. The resulted solutions were then measured in a UV-vis spectrophotometer for UV scanning from 240 nm to 400 nm at 25° C. The absorbance values were subtracted by that of a blank, 1 x PBS buffer containing DMSO. The total volume of the solutions was 300 uL and the path length for each well was 0.7 cm in a UV 96-well plate. The extinction coefficients of the compounds were then calculated based on molar concentrations and the corrected UV absorbances at the maximum absorption (Table 1).
The mixtures wer stirred for 1 h at room temperature, transferred to 1.5 mL Eppendorf tubes, and centrifuged for 2 min. The clear solutions were filtered through filter papers, affording clear solutions, which were centrifuged again for 2 min. The top clear solutions were diluted by 1 x PBS buffer by 10-fold for the solubilities in water and 100-fold for the solubilities in 1 x PBS buffer. The new clear solutions were then measured individually using a UV-vis spectrophotometer and a UV 96-well microplate. The absorbance values were subtracted by that of a blank, 1 x PBS buffer. Concentrations and solubilities of the compounds were then calculated using their extinct coefficients and the corrected UV absorbances at the maximum absorptions (Table 1).

[2] = system: Intracellular APOB; assay: Intracellular APOB protein by immunoblot; assay type: cell-based, human; conditions: 2 μg/mL, 24 hours
Experimental: G. Human iPSC-derived hepatocytes were treated with 2 μg/mL of DL-1 or equivalent concentration of DMSO for 24 hours. […] (A) APOB mRNA level was determined using real-time qPCR. (B) Intracellular APOB, LDLR, and HSP90 protein levels were determined via immunoblot. (C) Quantification of biological replicates of immunoblots on samples treated as in (B). Data are shown as mean±SEM of four replicates (n=4).
C. Human iPSC-derived hepatocytes (iPSC-Heps) were treated with 2 μg/mL of DL-1 or equivalent concentration of DMSO for 24 hours. In FIG. 7A, APOB mRNA level was determined using real-time qPCR. In FIG. 7B Intracellular APOB, LDLR, and HSP90 protein levels were determined via immunoblot; Quantification of biological replicates of immunoblots. […] In FIG. 12A LDL uptake assay was performed by pre-treating cells with 2 μg/mL of DL-1, 20 μM of Atorvastatin, and equivalent concentration of DMSO for 24 hours followed by 4 hours of pHrodo-LDL exposure; LDL endocytosis was determined and quantified by fluorescence image; data are shown as mean±SD of triplicates (n=3). […]
Immunoprecipitation of cell lysates was performed using protein G magnet beads (ThermoFisher) and anti-APOB (LDL20/17, Mabtech) antibodies. […] Expression levels were quantified via integrated intensity normalized by 5% of input of each sample. […] Signals were detected using HRP-conjugated secondary antibodies. […]

With `Sc1nc(S)nc(Nc2ccc(Nc3ccccc3)cc2)n1` (racemic) [DL-1, 6-{[4-(phenylamino)phenyl]amino}-1,3,5-triazine-2,4-dithiol] the “Solubility in 1.0 ml PBS buffer” value ([1]; 1 × PBS buffer) was 25 µg, the “Solubility in 1.0 ml water” value ([1]; water) was 0.37 µg and the “intracellular APOB protein level” value [2] was “no impact on APOB mRNA and intracellular protein levels”.
